Experimental data: ChEMBL document CHEMBL3044652, “Synthesis of novel 2-alkyl-4-substituted-amino-pyrazolo[3,4-d]pyrimidines as new leads for anti-bacterial and anti-cancer activity” (2013)

Experiments:
Type in all cases: functional
[1] = system: Escherichia coli; test: Antibacterial activity against Escherichia coli NCIM 2803 at 20 ug/ml after 24 hr by agar diffusion method; conditions: NCIM 2803, 24 h, read-out: IZ
[2] = system: Bacillus subtilis; test: Antibacterial activity against Bacillus subtilis NCIM 2545 at 20 ug/ml after 24 hr by agar diffusion method; conditions: NCIM 2545, 24 h, read-out: IZ
[3] = system: Staphylococcus aureus; test: Antibacterial activity against Staphylococcus aureus NCIM 5021 at 20 ug/ml after 24 hr by agar diffusion method; conditions: NCIM 5021, 24 h, read-out: IZ
[4] = system: Staphylococcus epidermidis; test: Antibacterial activity against Staphylococcus epidermidis NCIM 2493 at 20 ug/ml after 24 hr by agar diffusion method; conditions: NCIM 2493, 24 h, read-out: IZ
[5] = system: G-361; test: Cytotoxicity against Homo sapiens (human) G361 cells assessed as cell growth at 10^-7 M by SRB assay relative to control; conditions: read-out: Activity
[6] = system: G-361; test: Cytotoxicity against Homo sapiens (human) G361 cells assessed as cell growth at 10^-6 M by SRB assay relative to control; conditions: read-out: Activity
[7] = system: G-361; test: Cytotoxicity against Homo sapiens (human) G361 cells assessed as cell growth at 10^-5 M by SRB assay relative to control; conditions: read-out: Activity
[8] = system: G-361; test: Cytotoxicity against Homo sapiens (human) G361 cells assessed as cell growth at 10^-4 M by SRB assay relative to control; conditions: read-out: Activity
[9] = system: G-361; test: Cytotoxicity against Homo sapiens (human) G361 cells by SRB assay

Row | Compound | zone of inhibition at 20 µg/mL [1] | zone of inhibition at 20 µg/mL [2] | zone of inhibition at 20 µg/mL [3] | zone of inhibition at 20 µg/mL [4] | growth at 0.1 µM [5] | growth at 1 µM [6] | growth at 10 µM [7] | growth at 100 µM [8] | GI50 [9] | TGI [9] | LC50 [9]
1 | c1ccc(-n2ncc3c(NCc4ccco4)ncnc32)cc1 | 12.8 mm | 13.6 mm | 13 mm | 13.6 mm | 100% | 97.5% | 92.3% | 51.7% | > 100 µM | > 100 µM | –
2 | CC(C)Nc1ncnc2c1cnn2-c1ccccc1 | 13.3 mm | 13.3 mm | 13.6 mm | 13.6 mm | – | – | – | – | – | – | –
3 | ClCc1nc(Cl)c2cnn(-c3ccccc3)c2n1 | – | – | – | – | 100% | 100% | 90.9% | -59.3% | 2.08 µM | 33.2 µM | > 100 µM
4 | CCc1nc(NC(C)C)c2cnn(-c3ccccc3)c2n1 | 13.3 mm | 13.3 mm | 13.6 mm | 13.6 mm | 100% | 96.4% | 83.3% | 40% | 38 µM | > 100 µM | > 100 µM
5 | CCCCNc1nc(CC)nc2c1cnn2-c1ccccc1 | 12.7 mm | 12.8 mm | 13.3 mm | 13 mm | 100% | 96.5% | 84.8% | -62.5% | 2.02 µM | 32 µM | > 100 µM
6 | CCc1nc(NCc2ccco2)c2cnn(-c3ccccc3)c2n1 | 12.7 mm | 13.6 mm | 13.3 mm | 13.6 mm | 100% | 96.5% | 86.3% | -61% | 2.04 µM | 32 µM | > 100 µM
7 | CCc1nc(N2CCOCC2)c2cnn(-c3ccccc3)c2n1 | 13 mm | 13.3 mm | 13 mm | 13 mm | 100% | 85.5% | 65.9% | 30.9% | 28 µM | > 100 µM | > 100 µM
8 | CCc1nc(Nc2ccccc2)c2cnn(-c3ccccc3)c2n1 | 13.3 mm | 13.3 mm | 13.6 mm | 13.6 mm | – | – | – | – | – | – | –
9 | CC(C)c1nc(Nc2ccccc2)c2cnn(-c3ccccc3)c2n1 | 12.8 mm | 13.5 mm | 13.3 mm | 13.3 mm | 100% | 100% | 91.9% | 19.2% | 32 µM | > 100 µM | > 100 µM
10 | CCCNCc1nc(NCCC)c2cnn(-c3ccccc3)c2n1 | 13.3 mm | 13.6 mm | 13.3 mm | 13.3 mm | 100% | 99.6% | 100% | 75.1% | > 100 µM | > 100 µM | –
11 | CC(C)NCc1nc(NC(C)C)c2cnn(-c3ccccc3)c2n1 | 13 mm | 13.6 mm | 1.3 mm | 1.33 mm | 100% | 100% | 99.7% | 56.5% | > 100 µM | > 100 µM | > 100 µM
12 | CCNCc1nc(NCC)c2cnn(-c3ccccc3)c2n1 | 13.3 mm | 12.7 mm | 12.6 mm | 13.6 mm | 100% | 100% | 100% | 87.7% | > 100 µM | > 100 µM | > 100 µM
13 | c1ccc(-n2ncc3c(N4CCOCC4)nc(CN4CCOCC4)nc32)cc1 | 13.6 mm | 13 mm | 13.6 mm | 13.3 mm | 99.7% | 99.6% | 94.3% | 47.6% | > 100 µM | > 100 µM | > 100 µM
14 | c1ccc(NCc2nc(Nc3ccccc3)c3cnn(-c4ccccc4)c3n2)cc1 | 13.3 mm | 13.6 mm | 13.2 mm | 13 mm | 100% | 100% | 99.7% | 48.5% | > 100 µM | > 100 µM | > 100 µM
15 | c1ccc(-n2ncc3c(N4CCOCC4)ncnc32)cc1 | 13.3 mm | 12.8 mm | 13.6 mm | 12.7 mm | 100% | 100% | 100% | 61.5% | > 100 µM | > 100 µM | > 100 µM
16 | CCCNc1nc(C)nc2c1cnn2-c1ccccc1 | 12.7 mm | 13 mm | 13.6 mm | 13.6 mm | 100% | 100% | 100% | 25.3% | 36 µM | > 100 µM | > 100 µM
17 | Cc1nc(NC(C)C)c2cnn(-c3ccccc3)c2n1 | 13 mm | 13.6 mm | 13.3 mm | 13.7 mm | 100% | 100% | 100% | 13.5% | 32 µM | > 100 µM | > 100 µM
18 | Cc1nc(NCc2ccco2)c2cnn(-c3ccccc3)c2n1 | 13.6 mm | 12.5 mm | 12.7 mm | 13.3 mm | 100% | 100% | 100% | 30.1% | 39 µM | > 100 µM | > 100 µM
19 | Cc1nc(N2CCOCC2)c2cnn(-c3ccccc3)c2n1 | 12.7 mm | 13.6 mm | 13.3 mm | 13.6 mm | 100% | 100% | 99.8% | 43.9% | > 100 µM | > 100 µM | > 100 µM
20 | Cc1nc(Nc2ccccc2)c2cnn(-c3ccccc3)c2n1 | 13.3 mm | 13.6 mm | 13.4 mm | 13.6 mm | 100% | 100% | 100% | 65.6% | > 100 µM | > 100 µM | > 100 µM
21 | CCN(CC)c1nc(C)nc2c1cnn2-c1ccccc1 | 13.6 mm | 13.1 mm | 13.7 mm | 13.3 mm | 100% | 100% | 100% | 61.8% | > 100 µM | > 100 µM | > 100 µM
22 | Cc1nc(NCc2ccccc2)c2cnn(-c3ccccc3)c2n1 | 12.6 mm | 13.3 mm | 13.1 mm | 12.7 mm | 100% | 100% | 100% | 45.5% | > 100 µM | > 100 µM | > 100 µM
23 | CCNc1nc(C)nc2c1cnn2-c1ccccc1 | 13.4 mm | 13.3 mm | 13.3 mm | 13.3 mm | 100% | 100% | 99.6% | 29.2% | 38.7 µM | > 100 µM | > 100 µM
24 | COc1ccccc1Nc1nc(C)nc2c1cnn2-c1ccccc1 | 13.5 mm | 13.4 mm | 13.3 mm | 13.6 mm | – | – | – | – | – | – | –
25 | CCCNc1nc(CC)nc2c1cnn2-c1ccccc1 | 13.6 mm | 13 mm | 13.3 mm | 13.3 mm | 100% | 94.7% | 84.7% | -34.7% | 2.2 µM | 37 µM | > 100 µM
26 | COc1cccc2c1C(=O)c1c(O)c3c(c(O)c1C2=O)C[C@@](O)(C(=O)CO)C[C@@H]3O[C@H]1C[C@H](N)[C@H](O)[C@H](C)O1 [DOXORUBICIN] | – | – | – | – | -24% | -62.5% | -64.2% | -70.7% | < 0.1 µM | < 0.1 µM | –
